Data on ten compounds can be found in PubChem BioAssay (NCI).

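1) Cells in 96-well plates. 2) Compound, 48 h, 5 concentrations. 3) Linear interpolation between surrounding doses. 4) Unreached endpoint = highest concentration. Here, GI50 denotes the concentration required for 50% inhibition of growth. Definition used: TGI = concentration required for complete inhibition of growth.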 Some results are limits rather than exact numbers.

Test systems include 786-0 renal; HS 578T breast; SF-268 CNS; IGROV1 ovarian; NCI-H460 lung; LOX IMVI melanoma; DU-145 prostate; K-562 leukemia.
Experiment in all cases: NCI anticancer screen, dose series, 48 h

On to `COC(C(=O)[C@@H](O)[C@@H](C)O)[C@@H]1Cc2cc3cc(O[C@H]4C[C@@H](O[C@H]5C[C@@H](O)[C@H](O)C(C)O5)[C@H](O)C(C)O4)c(C)c(O)c3c(O)c2C(=O)[C@H]1O[C@H]1C[C@@H](O[C@H]2C[C@@H](O[C@H]3C[C@@H](O)[C@H](OC)C(C)O3)[C@@H](O)C(C)O2)[C@H](O)C(C)O1` (some centres not stated), for which the GI50 was 0.0313 µM in the experiment on 786-0 renal; 0.019 µM with HS 578T breast; 0.0307 µM in the experiment on SF-268 CNS; 0.0239 µM with IGROV1 ovarian; 0.0132 µM in the experiment with NCI-H460 lung; 0.00894 µM with LOX IMVI melanoma. Moreover, the GI50 in the experiment on DU-145 prostate is 0.0188 µM; in the experiment with K-562 leukemia, 0.0224 µM. Further, the TGI is greater than 26.9 µM in the experiment with 786-0 renal; greater than 33.3 µM with HS 578T breast; greater than 33.3 µM in the experiment with SF-268 CNS; greater than 33.3 µM with IGROV1 ovarian; greater than 33.3 µM in the experiment on NCI-H460 lung; 0.0289 µM with LOX IMVI melanoma. Also, the TGI in the experiment on DU-145 prostate and in the experiment on K-562 leukemia was greater than 33.3 µM in each case.
As to `COCOc1ccc(C2(O)Oc3cc(OCOC)ccc3C2C)c(O)c1` (configuration not stated), the TGI in the experiment on 786-0 renal was 31.6 µM; in the experiment with SF-268 CNS, 30 µM; with IGROV1 ovarian it was 31.6 µM; in the experiment with NCI-H460 lung it was 27.1 µM; in the experiment with LOX IMVI melanoma, 34.6 µM; in the experiment with DU-145 prostate, 25.8 µM. Also, the TGI with K-562 leukemia worked out at 44.7 µM.
Regarding `O=C(NO)c1ccc(CN(c2cnccn2)c2cnccn2)cc1`, the GI50 in the experiment with 786-0 renal is 15.7 µM; in the experiment with HS 578T breast it was 23.3 µM; in the experiment with SF-268 CNS, 16.3 µM; in the experiment with IGROV1 ovarian, 15.6 µM; in the experiment with NCI-H460 lung it was 14.8 µM; with LOX IMVI melanoma, 3.69 µM. For the same compound, the GI50 with DU-145 prostate was 9.26 µM; with K-562 leukemia, 13 µM. For the same compound, the TGI in the experiment with 786-0 renal was found to be 35 µM; in the experiment with HS 578T breast, 96.8 µM; in the experiment on SF-268 CNS it was 32.7 µM; in the experiment with IGROV1 ovarian, 35.2 µM; in the experiment with NCI-H460 lung it was 43.6 µM; with LOX IMVI melanoma it was 18.1 µM. Moreover, the TGI in the experiment on DU-145 prostate and in the experiment with K-562 leukemia was greater than 100 µM each time.
Turning to `O=C1CSC(c2ccc(-c3nc4ccccc4s3)cc2)=N1`, the GI50 in the experiment on 786-0 renal was 77.2 µM; in the experiment with HS 578T breast it was 20.2 µM; in the experiment with IGROV1 ovarian, 50.5 µM; in the experiment on NCI-H460 lung, 30.2 µM; in the experiment with LOX IMVI melanoma, 7.48 µM; in the experiment with DU-145 prostate, 67 µM. The GI50 in the experiment with K-562 leukemia is 16.7 µM. Besides, the TGI in the experiment on 786-0 renal is greater than 100 µM; in the experiment with HS 578T breast, 59.7 µM; in the experiment with IGROV1 ovarian, greater than 100 µM; in the experiment on NCI-H460 lung, 74.5 µM; in the experiment with LOX IMVI melanoma it was 26.9 µM; in the experiment with DU-145 prostate, greater than 100 µM. Moreover, the TGI with K-562 leukemia was 50.4 µM.
As to `COc1ccc(Cc2cnc(NC(=O)c3ccc4c(c3)OCCO4)s2)cc1`, the GI50 was 0.0493 µM with 786-0 renal; 0.0311 µM with HS 578T breast; 0.211 µM in the experiment on SF-268 CNS; 0.0485 µM in the experiment on IGROV1 ovarian; 0.0344 µM with NCI-H460 lung; 0.0456 µM with LOX IMVI melanoma. Moreover, the GI50 is 0.037 µM in the experiment on DU-145 prostate and 0.0157 µM with K-562 leukemia. The TGI in the experiment on 786-0 renal is greater than 74.3 µM; with HS 578T breast it was greater than 76 µM; in the experiment with SF-268 CNS, greater than 100 µM; with IGROV1 ovarian, greater than 55.2 µM; with NCI-H460 lung, 26 µM; in the experiment on LOX IMVI melanoma, greater than 100 µM. Besides, the TGI in the experiment with DU-145 prostate is greater than 41.1 µM; in the experiment on K-562 leukemia, greater than 100 µM.
Regarding `CC[C@@]1(O)C(=O)OCc2c1cc1n(c2=O)Cc2c-1nc1cc(F)c(C)c3c1c2[C@@H](N)CC3`, the GI50 is less than 0.01 µM in the experiment on 786-0 renal; 0.735 µM in the experiment with HS 578T breast; less than 0.01 µM with SF-268 CNS; 0.0162 µM in the experiment on IGROV1 ovarian; less than 0.01 µM in the experiment with NCI-H460 lung; less than 0.01 µM in the experiment on DU-145 prostate. In addition, the GI50 with K-562 leukemia is less than 0.0117 µM. Further, the TGI in the experiment on HS 578T breast was greater than 100 µM; in the experiment with SF-268 CNS it was 2.17 µM; with IGROV1 ovarian it was 1.59 µM; in the experiment on NCI-H460 lung, greater than 33.7 µM; in the experiment with DU-145 prostate, greater than 100 µM; with K-562 leukemia it was greater than 100 µM.
Consider `C/C(=N\NC(=S)N1CC2CCC(CC2)C1)c1ccccn1`, for which the GI50 in the experiment with 786-0 renal was 0.152 µM; with HS 578T breast it was 0.226 µM; in the experiment with SF-268 CNS, 0.185 µM; in the experiment on IGROV1 ovarian, less than 0.01 µM; with NCI-H460 lung it was 0.044 µM; with LOX IMVI melanoma, 0.0428 µM. Further, the values for the GI50 in the experiment with DU-145 prostate and in the experiment on K-562 leukemia were 0.408 µM and less than 0.0108 µM, respectively. For the same compound, the TGI in the experiment with 786-0 renal turned out to be 1.46 µM; with HS 578T breast, 3.87 µM; in the experiment with SF-268 CNS, 2.4 µM; with IGROV1 ovarian, 2.29 µM; in the experiment on NCI-H460 lung it was 1.37 µM; in the experiment with LOX IMVI melanoma, 1.81 µM. The results for the TGI with DU-145 prostate and in the experiment with K-562 leukemia were 2.83 µM and 2.21 µM, respectively.
Regarding `Nc1nc(N)nc(CCCc2nc(N)nc(N)n2)n1`, the TGI in the experiment with 786-0 renal, in the experiment with HS 578T breast, in the experiment on SF-268 CNS, in the experiment on IGROV1 ovarian, in the experiment with NCI-H460 lung and in the experiment with LOX IMVI melanoma was greater than 100 µM each time. In addition, the TGI in the experiment on DU-145 prostate and in the experiment with K-562 leukemia was greater than 100 µM each time.
In the case of `CCN(CC)c1cc2oc3cc(N)cc(=N)c-3nc2cc1C`, the GI50 with 786-0 renal was 11.2 µM; with HS 578T breast, 2.18 µM; in the experiment on SF-268 CNS, 3.26 µM; in the experiment on IGROV1 ovarian, 3.03 µM; with NCI-H460 lung, 3.41 µM; in the experiment with DU-145 prostate, 2.2 µM. The TGI worked out at 70.1 µM with 786-0 renal; 7.25 µM with HS 578T breast; 18.2 µM in the experiment with SF-268 CNS; 14.3 µM in the experiment on IGROV1 ovarian; 17 µM in the experiment with NCI-H460 lung; 4.92 µM in the experiment with DU-145 prostate.
Consider `C[C@]12CC[C@@H]3c4ccc(O)c([N+](=O)[O-])c4CC[C@H]3[C@@H]1CC[C@@H]2NS(=O)(=O)c1cccc(Br)c1`, for which the GI50 in the experiment with 786-0 renal was 2.7 µM; with HS 578T breast, 2.23 µM; in the experiment on SF-268 CNS, 2.99 µM; in the experiment on IGROV1 ovarian, 3.22 µM; in the experiment on NCI-H460 lung, 1.81 µM; with DU-145 prostate it was 3.6 µM. The GI50 in the experiment on K-562 leukemia is 3.1 µM. The TGI with 786-0 renal worked out at 7.5 µM; in the experiment with HS 578T breast, 6 µM; in the experiment on SF-268 CNS it was 10.3 µM; in the experiment on IGROV1 ovarian it was 9.35 µM; in the experiment with NCI-H460 lung, 3.56 µM; in the experiment with DU-145 prostate, 12.4 µM. This compound also showed a TGI in the experiment on K-562 leukemia of 10.7 µM.
